Measured values from ChEMBL document CHEMBL3045350, “Inheritance of resistance to a new non-steroidal ecdysone agonist, fufenozide, in the diamondback moth, Plutella xylostella (Lepidoptera: Plutellidae)” (2010).
≈ marks a conversion by molar mass, not a printed value.

Experiments:
Type in all cases: functional
Plutella xylostella [1] = experiment: Resistant ratio, ratio of LC50 for F1 generation of third-instar larvae of Plutella xylostella (diamondback moth) to LC50 for fufenozide-susceptible third-instar larvae of Plutella xylostella
Plutella xylostella [2] = experiment: Resistant ratio, ratio of LC50 for F1 pooled generation of third-instar larvae of Plutella xylostella (diamondback moth) to LC50 for fufenozide-susceptible third-instar larvae of Plutella xylostella
Plutella xylostella [3] = experiment: Insecticidal activity against fufenozide-resistant 39th generation of third-instar larvae of Plutella xylostella (diamondback moth) in cabbage leaf assessed as mortality after 96 hr by leaf dip method; details: foliar
Plutella xylostella [4] = experiment: Insecticidal activity against fufenozide-susceptible third-instar larvae of Plutella xylostella (diamondback moth) in cabbage leaf assessed as mortality after 96 hr by leaf dip method; details: foliar
Plutella xylostella [5] = experiment: Insecticidal activity against F1 pooled generation of third-instar larvae of Plutella xylostella (diamondback moth) in cabbage leaf assessed as mortality after 96 hr by leaf dip method; details: foliar
Plutella xylostella [6] = experiment: Insecticidal activity against F1 generation of third-instar larvae of Plutella xylostella (diamondback moth) in cabbage leaf assessed as mortality after 96 hr by leaf dip method; details: foliar
Plutella xylostella [7] = experiment: Resistant ratio, ratio of LC50 for F2 generation of third-instar larvae of Plutella xylostella (diamondback moth) to LC50 for fufenozide-susceptible third-instar larvae of Plutella xylostella
Plutella xylostella [8] = experiment: Resistant ratio, ratio of LC50 for backcrossed third-instar larvae of Plutella xylostella (diamondback moth) to LC50 for fufenozide-susceptible third-instar larvae of Plutella xylostella
Plutella xylostella [9] = experiment: Insecticidal activity against F2 generation of third-instar larvae of Plutella xylostella (diamondback moth) in cabbage leaf assessed as mortality after 96 hr by leaf dip method; details: foliar
Plutella xylostella [10] = experiment: Resistant ratio, ratio of LC50 for F'1 generation of third-instar larvae of Plutella xylostella (diamondback moth) to LC50 for fufenozide-susceptible third-instar larvae of Plutella xylostella
Plutella xylostella [11] = experiment: Insecticidal activity against backcrossed third-instar larvae of Plutella xylostella (diamondback moth) in cabbage leaf assessed as mortality after 96 hr by leaf dip method; details: foliar
Plutella xylostella [12] = experiment: Insecticidal activity against F'1 generation of third-instar larvae of Plutella xylostella (diamondback moth) in cabbage leaf assessed as mortality after 96 hr by leaf dip method; details: foliar

## Cc1cc(C)cc(C(=O)N(NC(=O)c2ccc3c(c2C)OC(C)C3)C(C)(C)C)c1 (configuration not stated) [FUXIAN]
Plutella xylostella [1]
  RatioLC50: 1.76
Plutella xylostella [2]
  RatioLC50: 2.61
Plutella xylostella [3]
  LC50: 1480 µM
Plutella xylostella [4]
  LC50: 2.23 µg/mL (≈ 5.66 µM)
Plutella xylostella [5]
  LC50: 5.82 µg/mL (≈ 14.8 µM)
Plutella xylostella [6]
  LC50: 5.22 µg/mL (≈ 13.2 µM)
Plutella xylostella [7]
  RatioLC50: 2.24
Plutella xylostella [8]
  RatioLC50: 2.33
Plutella xylostella [9]
  LC50: 5 µg/mL (≈ 12.7 µM)
Plutella xylostella [10]
  RatioLC50: 2.09
Plutella xylostella [11]
  LC50: 6.93 µg/mL (≈ 17.6 µM)
Plutella xylostella [12]
  LC50: 6.22 µg/mL (≈ 15.8 µM)
